According to US9765074B2, “Inhibitors of the renal outer medullary potassium channel” (Merck Sharp & Dohme Corp., priority 2013, dated 2017):
pIC50: −log10 of the molar value.

Molecular target: T1, hROMK (hKir1.1) (Homo sapiens, UniProt P48048)
T1 construct: expressed in transfected cells
T1 sequence (P48048 1-391): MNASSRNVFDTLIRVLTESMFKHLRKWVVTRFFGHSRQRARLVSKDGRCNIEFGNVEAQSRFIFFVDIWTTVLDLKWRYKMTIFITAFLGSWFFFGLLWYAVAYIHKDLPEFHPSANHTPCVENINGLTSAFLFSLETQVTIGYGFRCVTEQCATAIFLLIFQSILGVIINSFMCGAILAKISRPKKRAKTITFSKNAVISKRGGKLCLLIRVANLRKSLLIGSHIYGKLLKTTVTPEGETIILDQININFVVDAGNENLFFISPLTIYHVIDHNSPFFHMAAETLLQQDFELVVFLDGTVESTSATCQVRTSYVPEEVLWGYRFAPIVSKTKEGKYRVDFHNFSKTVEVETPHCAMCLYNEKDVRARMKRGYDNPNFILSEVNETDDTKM
Experiment: Thallium Flux Assay (ROMK channel functional thallium flux, FLIPR-Tetra)
Format: cell-based
Conditions: HEK293 cells stably expressing hROMK (hKir1.1); 30 min compound incubation
In short: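 Thallium flux read by FluxOR fluorescence ([…]) for ~10 min after adding 3 mM Tl+/0.3 mM K+ final. Stable HEK-hKir1.1 cells were dye-loaded 90 min, exposed to compound 30 min at room temperature in ouabain/probenecid buffer; IC50 relative to a 3 μM control inhibitor.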

pIC50 | SMILES
8.00 | C[C@@H]1CC2(CCN(C[C@@H](O)c3ccc(-n4cnnn4)nc3)CC2)C(=O)N1C1=CC(=O)OC1 [Example 84, (3R)-8-{(2S)-2-hydroxy-2-[6-(1H-tetrazol-1-yl)pyridin-3-yl]ethyl}-3-methyl-1-oxo-2-(5-oxo-2,5-dihydrofuran-3-yl)-2-aza-8-azoniaspiro[4.5]decane]
7.52 | CC1=C(N2CCC3(CCN(C[C@H](O)c4cnc(-n5cnnn5)nc4C)CC3)C2=O)COC1=O [Example 85, 8-{(2R)-2-hydroxy-2-[4-methyl-2-(1H-tetrazol-1-yl)pyrimidin-5-yl]ethyl}-2-(4-methyl-5-oxo-2,5-dihydrofuran-3-yl)-1-oxo-2-aza-8-azoniaspiro[4.5]decane]
7.40 | CC1=C(N2CCC3(CCN(C[C@@H](O)c4cnc(-n5cnnn5)nc4C)CC3)C2=O)COC1=O [Example 86, 8-{(2S)-2-hydroxy-2-[4-methyl-2-(1H-tetrazol-1-yl)pyrimidin-5-yl]ethyl}-2-(4-methyl-5-oxo-2,5-dihydrofuran-3-yl)-1-oxo-2-aza-8-azoniaspiro[4.5]decane]
7.30 | CC1=C(N2CCC3(CCN(C[C@H](O)c4cnc(-n5cnnn5)c(C)n4)CC3)C2=O)COC1=O [Example 87, 8-{(2S)-2-hydroxy-2-[6-methyl-5-(1H-tetrazol-1-yl)pyrazin-2-yl]ethyl}-2-(4-methyl-5-oxo-2,5-dihydrofuran-3-yl)-1-oxo-2-aza-8-azoniaspiro[4.5]decane]
7.40 | CC1=C(N2CCC3(CCN(C[C@@H](O)c4cnc(-n5cnnn5)c(C)n4)CC3)C2=O)COC1=O [Example 88, 8-{(2R)-2-hydroxy-2-[6-methyl-5-(1H-tetrazol-1-yl)pyrazin-2-yl]ethyl}-2-(4-methyl-5-oxo-2,5-dihydrofuran-3-yl)-1-oxo-2-aza-8-azoniaspiro[4.5]decane]
7.52 | COc1cc(-n2cnnn2)ncc1[C@@H](O)CN1CCC2(CC1)CCN(C1=C(C)C(=O)OC1)C2=O [Example 93, 8-{(2R)-2-hydroxy-2-[4-methoxy-6-(1H-tetrazol-1-yl)pyridin-3-yl]ethyl}-2-(4-methyl-5-oxo-2,5-dihydrofuran-3-yl)-1-oxo-2-aza-8-azoniaspiro[4.5]decane]
7.70 | COc1cc(-n2cnnn2)ncc1[C@H](O)CN1CCC2(CC1)CCN(C1=C(C)C(=O)OC1)C2=O [Example 94, 8-{(2S)-2-hydroxy-2-[4-methoxy-6-(1H-tetrazol-1-yl)pyridin-3-yl]ethyl}-2-(4-methyl-5-oxo-2,5-dihydrofuran-3-yl)-1-oxo-2-aza-8-azoniaspiro[4.5]decane]
7.30 | CC1=C(N2CCC3(CCN(C[C@H](O)c4ccc(-n5cnnn5)c(C#N)c4)CC3)C2=O)COC1=O [Example 95, 8-{(2R)-2-[3-cyano-4-(1H-tetrazol-1-yl)phenyl]-2-hydroxyethyl}-2-(4-methyl-5-oxo-2,5-dihydrofuran-3-yl)-1-oxo-2-aza-8-azoniaspiro[4.5]decane]
7.15 | CC1=C(N2CCC3(CCN(C[C@@H](O)c4ccc(-n5cnnn5)c(C#N)c4)CC3)C2=O)COC1=O [Example 96, 8-{(2S)-2-[3-cyano-4-(1H-tetrazol-1-yl)phenyl]-2-hydroxyethyl}-2-(4-methyl-5-oxo-2,5-dihydrofuran-3-yl)-1-oxo-2-aza-8-azoniaspiro[4.5]decane]
7.70 | CC1=C(N2CC(=O)C3(CCN(C[C@H](O)c4ccc(-n5cnnn5)nc4)CC3)C2=O)COC1=O [Example 97, 8-{(2R)-2-hydroxy-2-[6-(1H-tetrazol-1-yl)pyridin-3-yl]ethyl}-2-[4-methyl-5-oxo-2,5-dihydrofuran-3-yl)-1,4-dioxo-2-aza-8-azoniaspiro[4.5]decane]
7.40 | CC1=C(N2CCC3(CCN(C[C@H](O)c4ncc(-n5cnnn5)nc4C)CC3)C2=O)COC1=O [Example 98, 8-{(2S)-2-hydroxy-2-[3-methyl-5-(1H-tetrazol-1-yl)pyrazin-2-yl]ethyl}-2-(4-methyl-5-oxo-2,5-dihydrofuran-3-yl)-1-oxo-2-aza-8-azoniaspiro[4.5]decane]
7.30 | CC1=C(N2CCC3(CCN(C[C@@H](O)c4ncc(-n5cnnn5)nc4C)CC3)C2=O)COC1=O [Example 99, 8-{(2R)-2-hydroxy-2-[3-methyl-5-(1H-tetrazol-1-yl)pyrazin-2-yl]ethyl}-2-(4-methyl-5-oxo-2,5-dihydrofuran-3-yl)-1-oxo-2-aza-8-azoniaspiro[4.5]decane]
7.52 | CC1=C(N2C=CC3(CCN(C[C@H](O)c4ccc(-n5cnnn5)nc4)CC3)C2=O)COC1=O [Example 116, 8-{(2R)-2-hydroxy-2-[6-(1H-tetrazol-1-yl)pyridin-3-yl]ethyl}-2-(4-methyl-5-oxo-2,5-dihydrofuran-3-yl)-1-oxo-2-aza-8-azoniaspiro[4.5]dec-3-ene]
8.00 | COc1cc(-n2cnnn2)ccc1[C@@H](O)CN1CCC2(CC1)CCN(C1=C(C)C(=O)OC1)C2=O [Example 119, 8-{(2R)-2-hydroxy-2-[2-methoxy-4-(1H-tetrazol-1-yl)phenyl]ethyl}-2-(4-methyl-5-oxo-2,5-dihydrofuran-3-yl)-1-oxo-2-aza-8-azoniaspiro[4.5]decane]
8.00 | COc1cc(-n2cnnn2)ccc1[C@H](O)CN1CCC2(CC1)CCN(C1=C(C)C(=O)OC1)C2=O [Example 120, 8-{(2S)-2-hydroxy-2-[2-methoxy-4-(1H-tetrazol-1-yl)phenyl]ethyl}-2-(4-methyl-5-oxo-2,5-dihydrofuran-3-yl)-1-oxo-2-aza-8-azoniaspiro[4.5]decane]
7.70 | CC1=C(N2CCC3(CCN(C[C@H](O)c4nnc(-n5cnnn5)cc4C)CC3)C2=O)COC1=O [Example 121, 8-{(2S)-2-hydroxy-2-[4-methyl-6-(1H-tetrazol-1-yl)pyridazin-3-yl]ethyl}-2-(4-methyl-5-oxo-2,5-dihydrofuran-3-yl)-1-oxo-2-aza-8-azoniaspiro[4.5]decane]
8.00 | CC1=C(N2CCC3(CCN(C[C@@H](O)c4nnc(-n5cnnn5)cc4C)CC3)C2=O)COC1=O [Example 122, 8-{(2R)-2-hydroxy-2-[4-methyl-6-(1H-tetrazol-1-yl)pyridazin-3-yl]ethyl}-2-(4-methyl-5-oxo-2,5-dihydrofuran-3-yl)-1-oxo-2-aza-8-azoniaspiro[4.5]decane]
7.70 | CC1=C(N2CCC3(CCN(C[C@@H](O)c4cc(C)c(-n5cnnn5)nn4)CC3)C2=O)COC1=O [Example 127, 8-{(2R)-2-hydroxy-2-[5-methyl-6-(1H-tetrazol-1-yl)pyridazin-3-yl]ethyl}-2-(4-methyl-5-oxo-2,5-dihydrofuran-3-yl)-1-oxo-2-aza-8-azoniaspiro[4.5]decane]
7.10 | CC1=C(N2CCC3(CCN(C[C@H](O)c4cc(C)c(-n5cnnn5)nn4)CC3)C2=O)COC1=O [Example 128, 8-{(2S)-2-hydroxy-2-[5-methyl-6-(1H-tetrazol-1-yl)pyridazin-3-yl]ethyl}-2-(4-methyl-5-oxo-2,5-dihydrofuran-3-yl)-1-oxo-2-aza-8-azoniaspiro[4.5]decane]

SMILES | pIC50
CC1=C(N2CCC3(CC4CN(C)CC(C3)N4C[C@H](O)c3ccc(-n4cnnn4)nc3)C2=O)COC1=O (stereo partly drawn) [Example 112, (1R,5R,7R,9R)-9-{(2R)-2-hydroxy-2-[6-(1H-tetrazol-1-yl)pyridin-3-yl]ethyl}-7-methyl-1′-(4-methyl-5-oxo-2,5-dihydrofuran-3-yl)-2′-oxospiro[7,9-diazoniabicyclo[3.3.1]nonane-3,3′-pyrrolidine]] | 6.39
